# In ChEMBL document CHEMBL3301361, “Experimental in vitro DMPK and physicochemical data on a set of publicly disclosed compounds”:
# Experiments:
# [1] = physchem; settings: pH 7.4 buffer
# [2] = physchem; settings: octan-1-ol/water
solubility thermodynamic [1] [µM],"logD ([2]; pH 7.4, LogD7.4)",logD ([2]; pH 7.4),Compound
209,1.8,,Cc1nc(C)c(-c2ccc([C@H]3CC[C@H](CC(=O)O)CC3)c(Cl)c2)nc1C(N)=O
37.2,3.19,,Cc1cc2c(F)c(Oc3ncnn4cc(OC[C@@H](C)OC(=O)[C@H](C)N)c(C)c34)ccc2[nH]1 [BRIVANIB ALANINATE]
3.2,3.52,,COC1(c2cc(F)cc(OCc3ccc4c(ccc(=O)n4C)c3)c2)CCOCC1 [ZD-2138]
52.5,,3.6,C[C@@H]1CN(Cc2ccc(F)cc2)[C@@H](C)CN1C(=O)c1cc2c(C(=O)C(=O)N(C)C)cn(C)c2cc1Cl [TALMAPIMOD]
7.6,4.14,,Cc1ccc(Oc2ccc(Nc3ncnc4cccc(O[C@H](C)C(=O)N5CCOCC5)c34)cc2C)cn1
29.5,1.52,,Cc1nc2nc(-c3cccnc3)nn2c(O)c1Cc1ccccc1
69.2,3.6,,CN(C)CCOc1ccc(-c2oc3ncnc(NC[C@@H]4CCCO4)c3c2-c2ccccc2)cc1
372,1.91,,Nc1cc(-c2ccccc2)ncn1
77.6,3.1,,O=C(Nc1ccc(Oc2cccnc2)nc1)c1nnc(Nc2ccccc2F)o1
2,3.9,,O=S(=O)(Cc1c(F)cccc1F)N1CCN(c2ncccc2C(F)(F)F)CC1
93.3,3.7,,CN(C)C/C=C/C(=O)Nc1cc2c(Nc3ccc(F)c(Cl)c3)ncnc2cc1O[C@H]1CCOC1 [AFATINIB]
107,3.31,,CCc1cccc(CC)c1NC(=O)N1Cc2n[nH]c(NC(=O)c3ccc(N4CCN(C)CC4)cc3)c2C1 [PHA-680632]
417,2.41,,FC(F)(F)c1nnc2ccc(N3CCCC3)nn12
257,3.58,,COc1cc2ncnc(Nc3cccc(Cl)c3F)c2cc1CN1CCC[C@H]1C(N)=O
8.9,3.7,,COc1cc(N2CCN(C(C)=O)CC2)ccc1Nc1ncc(C(F)(F)F)c(-c2cnc3ccccn23)n1
501,1.84,,c1nc(N2CCCCC2)c2nc[nH]c2n1
118,1.32,,CC1(C)Oc2ncnc(N)c2N=C1c1ccc([C@H]2CC[C@H](CC(=O)O)CC2)cc1
1020,0.5,,N#Cc1cnn(-c2ccccc2)c1NC(=O)CN1CCOCC1
1.9,3.24,,O=C1COC2(CCN(S(=O)(=O)c3ccc(-c4ccc5cccnc5c4)cc3)CC2)CN1C1CC1
27.5,3.65,,Oc1ccc(-c2nc3ccc(O)cc3s2)cc1
1.3,3.16,,CS(=O)(=O)c1cccc(Nc2nccc(N(CC#N)c3c(Cl)ccc4c3OCO4)n2)c1
12,3.19,,CNC(=O)c1cc(-c2ccccc2)sc1NC(N)=O
170,2.12,,Nc1nc(-c2ccccn2)nc(N)c1Cc1ccccc1F
8.3,3.78,,COc1ccc2c(Oc3ccc(CC(=O)Nc4n[nH]c(C)c4C)c(OC)c3)ccnc2c1
0.7,1.97,,O=S(=O)(Nc1ccc(S(=O)(=O)Nc2nccs2)cc1)c1ccc2c(c1)OCCO2
4,3.24,,CC(C)C[C@H](N[C@@H](c1ccc(-c2ccc(S(C)(=O)=O)cc2)cc1)C(F)(F)F)C(=O)NCC#N
53.7,2.49,,O=C(Nc1ccccc1O)c1cc([N+](=O)[O-])ccc1Cl

solubility thermodynamic [1] [µM],"logD ([2]; pH 7.4, LogD7.4)",logD ([2]; pH 7.4),Compound
2.5,3.4,,O=C(c1ccc(F)cc1)C1CCN(C(=S)Nc2ccc(F)cc2)CC1
1510,0.57,,CNc1cccc(CCCc2ccc(C[C@H](NC(=O)c3c(Cl)cccc3Cl)C(=O)O)cc2)n1
132,3.29,,FC(F)(F)c1nnc2ccc(N3CCCCCC3)nn12
15.1,4.06,,c1ccc(Nc2ccnc(Nc3ccccc3)n2)cc1
550,2.74,,CC(C)Cn1c(=O)n(C)c(=O)c2c(C(=O)N3CC[C@@H](O)C3)c(Cc3ccccc3C(F)(F)F)sc21
234,0.7,,CS(=O)(=O)C1(c2cc(N3CCOCC3)nc(-c3cccc4[nH]ccc34)n2)CCNCC1
22.9,3.4,,CS(=O)(=O)n1c2ccccc2c2cc(NC(=O)CCc3ccncc3)ccc21
66.1,3.2,,O=C(Nc1ccc(N2CCOCC2)cc1)c1nnc(NC(=O)C2(c3ccc(Cl)cc3)CCC2)o1
661,2.06,,CS(=O)(=O)Nc1cccc(NC(=O)CN2CCN(C(=O)C[C@H](N)Cc3ccc(F)c(F)c3)[C@H](Cc3ccccc3)C2)c1
36.3,3.8,,COc1cccc(-c2c[nH]c(-c3ccccc3)n2)c1
2.5,3.07,,COc1cc(Nc2cc(Nc3c(Cl)ccc4c3OCO4)ncn2)cc(OC)c1OC
40.7,2.11,,CC1C(=O)Nc2ccccc2N1C(=O)c1ccccc1 (stereo not given)
209,3.43,,COc1ccc(Nc2nccc(-c3cnc(C)n3C(C)C)n2)cc1
1450,2.55,,NC1=NN(c2cccc(C(F)(F)F)c2)CC1 [BW-755C]
10,3.15,,O=C(c1ccc(F)cc1)C1CCN(C(=O)NCc2ccccc2)CC1
21.9,1.6,,Nc1cccc(NC(=O)c2ccc(CNC(=O)OCc3cccnc3)cc2)c1
195,3.58,,COc1cc2ncnc(Nc3cccc(Cl)c3F)c2cc1CN1CCC[C@@H]1C(N)=O
5.4,2.6,,CN1CCN(CC(=O)Nc2ccc(-c3cccn4c(=O)cc(N5CCOCC5)nc34)c3sc4ccccc4c23)CC1
3.1,3.89,,CCCc1c(C(=O)Nc2ccc(F)cc2C)cnn1-c1ccccc1
2.3,,1.25,CCN(CC)c1ncnc2c1ncn2Cc1c(Cl)cccc1Cl
44.7,3.67,,O=C(Nc1ccccc1)c1ccc(OCCCN2CCCC2)cc1OCc1cccc(F)c1
2.5,3.05,,c1cc(Nc2ccnc(Nc3cc(N4CCOCC4)cc(N4CCOCC4)c3)n2)c2cn[nH]c2c1
23.4,1.7,,CCc1cc(OCc2ccc(-c3ccccc3-c3nnn[nH]3)cc2)c2c(n1)CCCC2
190,1.5,,CS(=O)(=O)c1ccc2[nH]c3c(c2c1)CN(C(=O)[C@@H]1CCCC[C@H]1C(=O)NC1(C#N)CC1)CC3
813,1.96,,COc1cc2c(Nc3cc(CC(=O)Nc4cccc(F)c4F)[nH]n3)ncnc2cc1OCCCN1CCC[C@@H]1CO
4.5,2.67,,Nc1nc(N)c(C(=O)Nc2ccccn2)nc1Cl
37.2,2.79,,CCc1[nH]nc(NC(=O)Cc2ncc(Oc3ccnc4cc(OC)c(OC)cc34)cc2OC)c1C

Compound,solubility thermodynamic [1] [µM],"logD ([2]; pH 7.4, LogD7.4)",logD ([2]; pH 7.4)
Cc1nc(-c2ccccc2)c(-c2ccc(CN3CCC(n4c(=O)[nH]c5ccccc54)CC3)cc2)[nH]c1=O,27.5,,3.9
